What was measured:
human DHODH = human DHODH (Homo sapiens (Human), UniProt Q02127); assay: DHODH Enzymatic Assay; format: biochemical; conditions: purified human DHODH, DCIP absorbance, end-point mode; read-out: hDHODH IC50
Description: The following assay is referred to herein as the “DHODH Enzymatic Assay.” To detect DHODH enzyme activities, dichloroindophenol (DCIP) is added as the final electron acceptor in the assay. DCIP can accept electrons from the reduced coenzyme Q generated in the assay, or from dihydroorotate (DHO) via FMN by binding presumably to the ubiquinone pocket. DCIP solutions are blue, with an intense absorbance around 600 nm, but becomes colorless upon reduction (J. Biol. Chem. (1986) 261, 11386). The assay buffer contained […], pH 7.5, 150 mM NaCl, 0.5 mM EDTA, and 0.1% Triton X-100 in MilliQ water. Substrate consisting of 20 mM DHO, 5 mM CoQ6, and 1 mM DCIP in assay buffer, initiates the reaction. The assay is run in end-point mode by quenching the reaction with the potent DHODH inhibitor brequinar. Absorbance measurements were obtained using the BMG Phera Star plate-reading spectrophotomer. Purified human DHODH was purchased from Proteros (cat. No. PR-0044). Chemicals were purchased from Sigma-Aldrich, Teknova, and Avanti Polar Lipids. Liquid handling was performed using Labcyte Echo and Formulatrix Tempest.

[1] = system: MOLM-13 cells (human acute myeloid leukemia cells); assay: MOLM-13 Cellular Assay; format: cell-based; conditions: Homo sapiens, MOLM-13, 72 h, 72 hours exposure, cell viability by CellTiter-Glo
Description: The following assay is referred to herein as the “MOLM-13 Cellular Assay.” MOLM-13 cells (human acute myeloid leukemia cells) were obtained from DSMZ and were maintained in RPMI 1640+Glutamax+25 mM HEPES (Invitrogen, catalog number 72400) supplemented with 10% heat inactivated fetal bovine serum (FBS; Invitrogen, catalog number 16140). The day prior to assay set-up, cells were pelleted, resuspended in fresh media, counted, and cells were plated at 0.4×10^6 cell/mL in a T150 flask. On the day of the assay, cells were pelleted, resuspend in fresh media, counted and seeded at 5,000 cells/well in white opaque 96-well tissue culture treated microplates (Perkin Elmer, catalog number 6005680). Cells were exposed to different concentrations of test compounds at 37° C., 5% CO2 for 72 hours immediately after seeding. Cell viability was acquired on a Perkin Elmer Envision 2104 multilabel reader using the CellTiter-Glo assay (Promega) according to the manufacturer's instructions.

human DHODH, sequence (Q02127 whole entry): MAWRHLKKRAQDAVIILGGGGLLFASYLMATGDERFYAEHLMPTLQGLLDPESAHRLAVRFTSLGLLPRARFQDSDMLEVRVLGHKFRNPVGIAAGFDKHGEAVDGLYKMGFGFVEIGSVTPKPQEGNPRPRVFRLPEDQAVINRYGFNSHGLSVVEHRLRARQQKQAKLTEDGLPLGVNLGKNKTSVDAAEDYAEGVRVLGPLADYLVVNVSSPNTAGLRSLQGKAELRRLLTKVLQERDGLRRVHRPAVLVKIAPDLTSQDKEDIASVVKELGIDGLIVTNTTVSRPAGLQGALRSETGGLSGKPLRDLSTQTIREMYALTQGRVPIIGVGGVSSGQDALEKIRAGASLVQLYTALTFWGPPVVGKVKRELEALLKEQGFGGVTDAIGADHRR

SMILES	IC50 (human DHODH) [nM]	IC50 [1] [nM]
CCC(C)c1cn(-c2c(F)cccc2Cl)c(=O)c2cc(F)c(-n3nc(CO)n(CC)c3=O)cc12 (racemic) [Example 48, Racemic-4-(sec-Butyl)-2-(2-chloro-6-fluorophenyl)-6-(4-ethyl-3-(hydroxymethyl)-5-oxo-4,5-dihydro-1H-1,2,4-triazol-1-yl)-7-fluoroisoquinolin-1(2H)-one]	0.907	0.6
CCn1c(CO)nn(-c2cc3c(C(C)C(F)(F)F)nn(-c4ccccc4C)c(=O)c3cc2F)c1=O (racemic) [Example 55, Racemic 6-(4-Ethyl-3-(hydroxymethyl)-5-oxo-4,5-dihydro-1H-1,2,4-triazol-1-yl)-7-fluoro-2-(o-tolyl)-4-(1,1,1-trifluoropropan-2-yl)phthalazin-1(2H)-one]	1.2	0.5
CCn1c(CO)nn(-c2cc3c(C(C)C(F)(F)F)cn(-c4ccccc4C)c(=O)c3cc2F)c1=O (racemic) [Example 88, Racemic-6-(4-Ethyl-3-(hydroxymethyl)-5-oxo-4,5-dihydro-1H-1,2,4-triazol-1-yl)-7-fluoro-2-(o-tolyl)-4-(1,1,1-trifluoropropan-2-yl)isoquinolin-1(2H)-one]	0.52	0.9
CCn1c(CO)nn(-c2cc3c(C(C)C)cn([C@H]4CC[C@@H](OC)C4)c(=O)c3cc2F)c1=O (racemic) [Example 119, Racemic 6-(4-Ethyl-3-(hydroxymethyl)-5-oxo-4,5-dihydro-1H-1,2,4-triazol-1-yl)-7-fluoro-4-isopropyl-2-((cis)-3-methoxycyclopentyl)isoquinolin-1(2H)-one]	10.1	10
CCn1c(CO)nn(-c2cc3c(C(C)C)cn([C@H]4CCC[C@@H](OC)C4)c(=O)c3cc2F)c1=O (racemic) [Example 127, Racemic 6-(4-Ethyl-3-(hydroxymethyl)-5-oxo-4,5-dihydro-1H-1,2,4-triazol-1-yl)-7-fluoro-4-isopropyl-2-((cis)-3-methoxycyclohexyl)isoquinolin-1(2H)-one]	181	> 100
CCn1c(CO)nn(-c2cc3c([C@H](C)C(F)(F)F)nn(-c4ccccc4C)c(=O)c3cc2F)c1=O (single isomer, unassigned) [Example 56, (S*)-6-(4-Ethyl-3-(hydroxymethyl)-5-oxo-4,5-dihydro-1H-1,2,4-triazol-1-yl)-7-fluoro-2-(o-tolyl)-4-(1,1,1-trifluoropropan-2-yl)phthalazin-1(2H)-one]	2.31	2
CCn1c(CO)nn(-c2cc3c([C@@H](C)C(F)(F)F)nn(-c4ccccc4C)c(=O)c3cc2F)c1=O (single isomer, unassigned) [Example 57, (R*)-6-(4-Ethyl-3-(hydroxymethyl)-5-oxo-4,5-dihydro-1H-1,2,4-triazol-1-yl)-7-fluoro-2-(o-tolyl)-4-(1,1,1-trifluoropropan-2-yl)phthalazin-1(2H)-one]	1.15	1
CCn1c(CO)nn(-c2cc3c(C(C)C)cn([C@@H]4CCCC[C@H]4C)c(=O)c3cc2F)c1=O (stereo in doubt) [Example 120, 6-(4-Ethyl-3-(hydroxymethyl)-5-oxo-4,5-dihydro-1H-1,2,4-triazol-1-yl)-7-fluoro-4-isopropyl-2-((1R*,2R*)-2-methylcyclohexyl)isoquinolin-1(2H)-one]	1.68	1
CCn1c(CO)nn(-c2cc3c(C(C)C)cn([C@H]4CCCC[C@@H]4C)c(=O)c3cc2F)c1=O (stereo in doubt) [Example 121, 6-(4-Ethyl-3-(hydroxymethyl)-5-oxo-4,5-dihydro-1H-1,2,4-triazol-1-yl)-7-fluoro-4-isopropyl-2-((1S*,2S*)-2-methylcyclohexyl)isoquinolin-1(2H)-one]	7.41	4
CCn1c(CO)nn(-c2ccc3c(=O)n(-c4cccc(F)c4)cc(C(C)(C)O)c3c2)c1=O [Example 25, 6-(4-Ethyl-3-(hydroxymethyl)-5-oxo-4,5-dihydro-1H-1,2,4-triazol-1-yl)-2-(3-fluorophenyl)-4-(2-hydroxypropan-2-yl)isoquinolin-1(2H)-one]	4260	
C=C(C)c1nn(-c2c(F)cccc2Cl)c(=O)c2cc(F)c(-n3nc(CO)n(CC)c3=O)cc12 [Example 27, 2-(2-Chloro-6-fluorophenyl)-6-(4-ethyl-3-(hydroxymethyl)-5-oxo-4,5-dihydro-1H-1,2,4-triazol-1-yl)-7-fluoro-4-(prop-1-en-2-yl)phthalazin-1(2H)-one]	0.32	
C=C(C)c1nn(-c2c(F)cccc2Cl)c(=O)c2cc(-n3nc(CO)n(CC)c3=O)c(F)cc12 [Example 28, 2-(2-Chloro-6-fluorophenyl)-7-(4-ethyl-3-(hydroxymethyl)-5-oxo-4,5-dihydro-1H-1,2,4-triazol-1-yl)-6-fluoro-4-(prop-1-en-2-yl)phthalazin-1(2H)-one]	5.03	
C=C(C)c1nn(-c2c(F)cccc2Cl)c(=O)c2cc(OC)c(-n3nc(CO)n(CC)c3=O)cc12 [Example 29, 2-(2-Chloro-6-fluorophenyl)-6-(4-ethyl-3-(hydroxymethyl)-5-oxo-4,5-dihydro-1H-1,2,4-triazol-1-yl)-7-methoxy-4-(prop-1-en-2-yl)phthalazin-1(2H)-one]	82.6	
C=C(C)c1nn(-c2c(F)cccc2Cl)c(=O)c2cc(-n3nc(CO)n(CC)c3=O)c(OC)cc12 [Example 30, 2-(2-Chloro-6-fluorophenyl)-7-(4-ethyl-3-(hydroxymethyl)-5-oxo-4,5-dihydro-1H-1,2,4-triazol-1-yl)-6-methoxy-4-(prop-1-en-2-yl)phthalazin-1(2H)-one]	3480	
C=C(C)c1cn(-c2cc(F)ccc2C)c(=O)c2cc(F)c(-n3nc(CO)n(CC)c3=O)cc12 [Example 82, 6-(4-Ethyl-3-(hydroxymethyl)-5-oxo-4,5-dihydro-1H-1,2,4-triazol-1-yl)-7-fluoro-2-(5-fluoro-2-methylphenyl)-4-(prop-1-en-2-yl)isoquinolin-1(2H)-one]	0.249	
CCn1c(CO)nn(-c2cc3c(C(C)C)cn(-c4cccnc4OC)c(=O)c3cc2F)c1=O [Example 90, 6-(4-Ethyl-3-(hydroxymethyl)-5-oxo-4,5-dihydro-1H-1,2,4-triazol-1-yl)-7-fluoro-4-isopropyl-2-(2-methoxypyridin-3-yl)isoquinolin-1(2H)-one]	20.7	
CCn1c(CO)nn(-c2cc3c(C(C)C)cn(-c4ccccc4Cl)c(=O)c3cc2F)c1=O [Example 117, 2-(2-Chlorophenyl)-6-(4-ethyl-3-(hydroxymethyl)-5-oxo-4,5-dihydro-1H-1,2,4-triazol-1-yl)-7-fluoro-4-isopropylisoquinolin-1(2H)-one]		0.3
CCn1c(CO)nn(-c2nc3c(C(C)C)cn(-c4ccccc4C(F)(F)F)c(=O)c3cc2F)c1=O [Example 133, 2-(4-Ethyl-3-(hydroxymethyl)-5-oxo-4,5-dihydro-1H-1,2,4-triazol-1-yl)-3-fluoro-8-isopropyl-6-(2-(trifluoromethyl)phenyl)-1,6-naphthyridin-5(6H)-one]		2
CCn1c(CO)nn(-c2cc3c(C(C)C)cn(-c4nc(C)ccc4C)c(=O)c3cc2F)c1=O [Example 134, 2-(3,6-Dimethylpyridin-2-yl)-6-(4-ethyl-3-(hydroxymethyl)-5-oxo-4,5-dihydro-1H-1,2,4-triazol-1-yl)-7-fluoro-4-isopropylisoquinolin-1(2H)-one]		8
